The target in this experiment is T1, CCR2 (Mus musculus, UniProt P51683).
T1 construct: membranes from Ba/F3 cells transfected with mouse CCR2
Put plainly: […]-rhCCL2 radioligand displacement, SPA, on membranes in mouse plasma. In kind it is binding. On the technique in general: Displacement assays read how much labelled ligand stays bound in the presence of the test substance.

T1 sequence (P51683 whole entry): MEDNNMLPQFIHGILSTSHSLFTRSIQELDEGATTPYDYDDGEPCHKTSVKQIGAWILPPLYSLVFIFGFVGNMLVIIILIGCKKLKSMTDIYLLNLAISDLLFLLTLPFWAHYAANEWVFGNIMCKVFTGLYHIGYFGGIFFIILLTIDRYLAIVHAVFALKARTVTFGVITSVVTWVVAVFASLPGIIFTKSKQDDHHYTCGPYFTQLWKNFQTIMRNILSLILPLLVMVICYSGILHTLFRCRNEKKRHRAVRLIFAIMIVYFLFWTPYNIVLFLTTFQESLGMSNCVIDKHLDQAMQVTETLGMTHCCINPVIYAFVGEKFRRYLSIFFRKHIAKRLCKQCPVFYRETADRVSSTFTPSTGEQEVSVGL

For orientation: IC50 means the point on the concentration scale where inhibition reaches its midpoint. Higher therefore signals weaker potency. Regarding `CO[C@@H]1COCC[C@@H]1N[C@@H]1CC[C@@](C(=O)N2CCc3ncc(C(F)(F)F)cc3C2)(C(C)C)C1` [MK0812], the half-maximal inhibitory concentration (IC50) was 0.019 µM.

These data come from publication PMC2777898, “CCR2 and CXCR4 regulate peripheral blood monocyte pharmacodynamics and link to efficacy in experimental autoimmune encephalomyelitis” (Journal of Inflammation (London, England), 2009).
